Source: PubChem BioAssay AID2060512 (Molecular Pharmacology Branch, DTP, NCI, 2025)
Several values for one entry are separate records, joined by “and”; a condition that tells them apart may be missing. Equal entries are not always repeated.

System: 186277-243-T-J2-PDC complex spheroid viability
Experiment: Anticancer human tumor 186277-243-T-J2-PDC patient-derived colon adenocarcinoma cell line growth inhibition [GQUAD]
Conditions: for viability, T/C: stronger effect = lower value
Excerpt: DNA G-quadruplex Stabilizer Agents in Combinations in Complex Spheroids
A high-throughput screen of multi-cell type tumor spheroids was designed to identify active combinations of DNA G-quadruplex stabilizer agents and targeted small molecules. Complex spheroids include a stromal component modeled by human endothelial cells (HUVEC) and fibroblasts modeled by human mesenchymal stem cells (MSCs). The concentration ranges selected for each drug and investigational agent were based upon clinically achievable concentrations if the clinical Cmax of the agent was known.
Compounds. The drugs and investigational agents: pidnarulex (CX-5461; NSC782164), APTO-253 (NSC789042), BRACO-19 (NSC847499), peposertib (NSC802822), ceralasertib (NSC780249), elimusertib (NSC800525), camonsertib (NSC841442), AZD-1390 (NSC803789), olaparib (NSC753686), talazoparib (NSC767125), ART-558 (NSC835418), sotorasib (NSC818433), MRTX-1133 (NSC836407), SN-38 (NSC673596), topotecan (NSC609699), etoposide (NSC141540), doxorubicin (NSC123127), gemcitabine (NSC613327), 5-fluorouracil (NSC19893), paclitaxel (NSC125973), vemurafenib (NSC761431), panobinostat (NSC761190), R-306465 (JNJ-16241199; NSC773264), adavosertib (NSC754352), TP-3654 (NSC805149), carboplatin (NSC241240), KSQ-4279 (NSC840948), and staurosporine (NSC755774) were obtained from the National Cancer Institute (NCI) Developmental Therapeutics Program Chemical Repository (34). The FDA-approved anticancer drug set is available from the NCI Developmental Therapeutics Program. […] The stock solutions were prepared in dimethyl sulfoxide (DMSO, Sigma-Aldrich, St. Louis, MO, cat. D2650) at 800-fold the tested concentration and stored at -70 degrees C prior to their use. All drugs and investigational agents were tested over a range starting from a high concentration at or near the clinical Cmax and decreasing in half-log increments. If the clinical Cmax for an agent had not been determined, the highest concentration tested was 10 microM.
2.3 Cell Culture. All cells were maintained in an incubator at 37 degrees C and 5% CO2 with 95% humidity. The PDC lines were cultured according to standard operating procedures established by the NCI PDMR. All PDCs were thawed and cultured in Matrigel-coated flasks prepared with a working solution of 1X Ham's F-12 nutrient mix, without supplementation (Invitrogen, cat. 11765054), 100 U/mL penicillin-streptomycin (Invitrogen, cat. 15140122), and 2.5% Matrigel (Corning Inc., cat. 354248) for the first three passages. The 857933-349-R-J2-PDC line was cultured in 6C/Colon 1B media, which includes advanced DMEM/F-12 (Thermo Fisher Scientific, cat. 12634028), 10 mM HEPES (Thermo Fisher Scientific, cat. 15630080), 1X GlutaMAX supplement (Thermo Fisher Scientific, cat. 35050061), 0.1 mg/mL primocin (InvivoGen, cat. ant-pm-2), 10% defined fetal bovine serum, heat inactivated (HyClone Laboratories Inc., cat. SH30070.03HI), 50% L-WRN conditioned media (ATCC, cat. CRL-3276), 1.25 mM N-Acetyl-L-cysteine (Sigma-Aldrich, cat. A9165), 10 mM nicotinamide (Sigma-Aldrich, cat. N0636), 1X B-27 supplement (Thermo Fisher Scientific, cat. 17504044), 1X N-2 supplement (Thermo Fisher Scientific, cat. 17502048), 10 microM Y-27632 dihydrochloride (Tocris Bioscience, cat. 1254), and 50 ng/mL human EGF recombinant protein (Thermo Fisher Scientific, cat. PHG0311). The 485176-168-R4-J1-PDC line was cultured in Panc media, which includes all 6C/Colon 1B media components plus 100 ng/mL human FGF-10 (Thermo Fisher Scientific, cat. 100-26), 500 nM SB-431542 (Selleckchem, cat. S1067), and gastrin (Tocris, cat. 3006).
[…]

[1] = curve of first compound, second compound 0.0316 µM
[2] = curve of first compound, second compound 0.1 µM
[3] = curve of first compound, second compound 0.316 µM
[4] = curve of first compound, second compound 1 µM
[5] = curve of first compound, second compound 3.16 µM
[6] = curve of first compound, second compound 10 µM
[7] = second compound 0.0316 µM, first compound 0.0316 µM
[8] = second compound 0.0316 µM, first compound 0.316 µM
[9] = second compound 0.1 µM, first compound 0.0316 µM
[10] = second compound 0.1 µM, first compound 0.316 µM
[11] = second compound 0.316 µM, first compound 0.0316 µM
[12] = second compound 0.316 µM, first compound 0.316 µM
[13] = second compound 1 µM, first compound 0.0316 µM
[14] = second compound 1 µM, first compound 0.316 µM
[15] = second compound 3.16 µM, first compound 0.0316 µM
[16] = second compound 3.16 µM, first compound 0.316 µM
[17] = second compound 10 µM, first compound 0.0316 µM
[18] = second compound 10 µM, first compound 0.316 µM
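Also: spheroids exposed to drugs for 7 days.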
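For viability, T/C in this document: 100% = DMSO vehicle control viability.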

CCc1c2c(nc3ccc(O)cc13)-c1cc3c(c(=O)n1C2)COC(=O)[C@]3(O)CC + Cc1cnc(CNC(=O)c2c(=O)c3ccc(N4CCCN(C)CC4)nc3n3c2sc2ccccc23)cn1
IC50 [1]: 0.00588 µM | IC50 [2]: 0.00711 µM | IC50 [3]: 0.00396 µM | IC50 [4]: < 0.000999 µM | IC50 [5]: < 0.000999 µM | IC50 [6]: < 0.000999 µM | viability, T/C (second compound 0.0316 µM, first compound 0.000999 µM): 90.8% | viability, T/C (second compound 0.0316 µM, first compound 0.00316 µM): 56% | viability, T/C (second compound 0.0316 µM, first compound 0.00999 µM): 46.3% | viability, T/C [7]: 27.8% | viability, T/C (second compound 0.0316 µM, first compound 0.0999 µM): 23.3% | viability, T/C [8]: 17.6% | viability, T/C (second compound 0.1 µM, first compound 0.000999 µM): 79.3% | viability, T/C (second compound 0.1 µM, first compound 0.00316 µM): 56.8% | viability, T/C (second compound 0.1 µM, first compound 0.00999 µM): 53.2% | viability, T/C [9]: 24.5% | viability, T/C (second compound 0.1 µM, first compound 0.0999 µM): 23.4% | viability, T/C [10]: 13.9% | viability, T/C (second compound 0.316 µM, first compound 0.000999 µM): 60.5% | viability, T/C (second compound 0.316 µM, first compound 0.00316 µM): 53.7% | viability, T/C (second compound 0.316 µM, first compound 0.00999 µM): 40.9% | viability, T/C [11]: 31.9% | viability, T/C (second compound 0.316 µM, first compound 0.0999 µM): 30.1% | viability, T/C [12]: 16.9% | viability, T/C (second compound 1 µM, first compound 0.000999 µM): 44.8% | viability, T/C (second compound 1 µM, first compound 0.00316 µM): 37.6% | viability, T/C (second compound 1 µM, first compound 0.00999 µM): 38.3% | viability, T/C [13]: 31.8% | viability, T/C (second compound 1 µM, first compound 0.0999 µM): 29.5% | viability, T/C [14]: 4.66% | viability, T/C (second compound 3.16 µM, first compound 0.000999 µM): 33.5% | viability, T/C (second compound 3.16 µM, first compound 0.00316 µM): 39.9% | viability, T/C (second compound 3.16 µM, first compound 0.00999 µM): 36.5% | viability, T/C [15]: 27.9% | viability, T/C (second compound 3.16 µM, first compound 0.0999 µM): 25.4% | viability, T/C [16]: 1.29% | viability, T/C (second compound 10 µM, first compound 0.000999 µM): 40.2% | viability, T/C (second compound 10 µM, first compound 0.00316 µM): 32.5% | viability, T/C (second compound 10 µM, first compound 0.00999 µM): 31.1% | viability, T/C [17]: 24.7% | viability, T/C (second compound 10 µM, first compound 0.0999 µM): 23.3% | viability, T/C [18]: 0.64%

O=c1[nH]cc(F)c(=O)[nH]1
viability, T/C (compound 0.0316 µM): 94.6% and 93.4% and 110% | viability, T/C (compound 0.1 µM): 94.9% and 95.8% and 93.8% | viability, T/C (compound 0.316 µM): 104% and 108% and 112% | viability, T/C (compound 1 µM): 97.6% and 114% and 107% | viability, T/C (compound 3.16 µM): 62.5% and 75.2% and 60.1% | viability, T/C (compound 10 µM): 39.6% and 52.2% and 50.6% | IC50 (curve of compound): 5.94 µM and > 10 µM

COc1cc(C2c3cc4c(cc3C(OC3OC5COC(C)OC5C(O)C3O)C3COC(=O)C23)OCO4)cc(OC)c1O (stereo unspecified) + Cc1[nH]c2ccc(F)cc2c1-c1nc2c3cccnc3c3ncccc3c2[nH]1
IC50 [1]: 3.72 µM | IC50 [2]: 2.42 µM | IC50 [3]: 3.48 µM | IC50 [4]: 3.34 µM | IC50 [5]: 2.58 µM | IC50 [6]: 2.76 µM | viability, T/C [7]: 104% | viability, T/C (second compound 0.0316 µM, first compound 0.1 µM): 101% | viability, T/C [8]: 101% | viability, T/C (second compound 0.0316 µM, first compound 1 µM): 62.2% | viability, T/C (second compound 0.0316 µM, first compound 3.16 µM): 61.3% | viability, T/C (second compound 0.0316 µM, first compound 10 µM): 25% | viability, T/C [9]: 92.1% | viability, T/C (second compound 0.1 µM, first compound 0.1 µM): 92.4% | viability, T/C [10]: 76.8% | viability, T/C (second compound 0.1 µM, first compound 1 µM): 62% | viability, T/C (second compound 0.1 µM, first compound 3.16 µM): 47.9% | viability, T/C (second compound 0.1 µM, first compound 10 µM): 27.2% | viability, T/C [11]: 94.6% | viability, T/C (second compound 0.316 µM, first compound 0.1 µM): 90.2% | viability, T/C [12]: 83.4% | viability, T/C (second compound 0.316 µM, first compound 1 µM): 69.3% | viability, T/C (second compound 0.316 µM, first compound 3.16 µM): 52.9% | viability, T/C (second compound 0.316 µM, first compound 10 µM): 26.2% | viability, T/C [13]: 104% | viability, T/C (second compound 1 µM, first compound 0.1 µM): 87.1% | viability, T/C [14]: 85.6% | viability, T/C (second compound 1 µM, first compound 1 µM): 66.9% | viability, T/C (second compound 1 µM, first compound 3.16 µM): 53.5% | viability, T/C (second compound 1 µM, first compound 10 µM): 27.4% | viability, T/C [15]: 96.6% | viability, T/C (second compound 3.16 µM, first compound 0.1 µM): 101% | viability, T/C [16]: 110% | viability, T/C (second compound 3.16 µM, first compound 1 µM): 69% | viability, T/C (second compound 3.16 µM, first compound 3.16 µM): 49.8% | viability, T/C (second compound 3.16 µM, first compound 10 µM): 25.5% | viability, T/C [17]: 103% | viability, T/C (second compound 10 µM, first compound 0.1 µM): 98% | viability, T/C [18]: 94.1% | viability, T/C (second compound 10 µM, first compound 1 µM): 70.6% | viability, T/C (second compound 10 µM, first compound 3.16 µM): 48.1% | viability, T/C (second compound 10 µM, first compound 10 µM): 30.5%
